The supplement of paper PMC13380429

What was measured:
Conditions in all cases: 72 h
[1] = test system: U2OS; experiment: drug sensitivity score (DSS) for viability; higher = more toxic; extreme values may be limits of the assay
[2] = test system: Caco-2; experiment: as above
[3] = test system: Calu-3; experiment: as above
[4] = test system: HepG2; experiment: as above
[5] = test system: Vero E6; experiment: as above
[6] = test system: U2OS; experiment: cell viability relative to DMSO; higher = less toxic
[7] = test system: Caco-2; experiment: as above
[8] = test system: Calu-3; experiment: as above
[9] = test system: HepG2; experiment: as above
[10] = test system: Vero E6; experiment: as above
[11] = test system: U2OS; experiment: relative viability EC50 (midpoint between 100% and the lowest measured viability); higher = less toxic
[12] = test system: Caco-2; experiment: as above
[13] = test system: Calu-3; experiment: as above
[14] = test system: HepG2; experiment: as above
[15] = test system: Vero E6; experiment: as above

Compound O=C1Nc2ccc(Cl)cc2[C@@](C#CC2CC2)(C(F)(F)F)O1 [efavirenz] has a drug sensitivity score [1] of 0, a drug sensitivity score [2] of 0 and a drug sensitivity score [3] of 0. It also gave a drug sensitivity score [4] of 0, a drug sensitivity score [5] of 0 and a cell viability ([6]; 1 nM) of 99.2%. For the same compound, the cell viability ([6]; 10 nM) was 96.3%, the cell viability ([6]; 100 nM) was 98.4% and the cell viability ([6]; 1000 nM) was 106%. For the same compound, the cell viability ([6]; 10000 nM) was 94.5%, the cell viability ([7]; 1 nM) was 95.7% and the cell viability ([7]; 10 nM) was 96.3%. For the same compound, the cell viability ([7]; 100 nM) was 83.3%, the cell viability ([7]; 1000 nM) was 96.3% and the cell viability ([7]; 10000 nM) was 124%. The cell viability ([8]; 1 nM) was 97.5%, the cell viability ([8]; 10 nM) was 107% and the cell viability ([8]; 100 nM) was 93.8%. The cell viability ([8]; 1000 nM) was 97.7%, the cell viability ([8]; 10000 nM) was 114% and the cell viability ([9]; 1 nM) was 92.1%. The cell viability ([9]; 10 nM) was 86.1%, the cell viability ([9]; 100 nM) was 95.9% and the cell viability ([9]; 1000 nM) was 83.4%. The cell viability ([9]; 10000 nM) was 94.6%, the cell viability ([10]; 1 nM) was 98.4% and the cell viability ([10]; 10 nM) was 93.5%. It also gave a cell viability ([10]; 100 nM) of 91.4%, a cell viability ([10]; 1000 nM) of 90% and a cell viability ([10]; 10000 nM) of 101%. The “relative viability EC50” value [11] was > 10 µM, the “relative viability EC50” value [12] was > 10 µM and the “relative viability EC50” value [13] was > 10 µM. The “relative viability EC50” value [14] was > 10 µM and the “relative viability EC50” value [15] was > 10 µM.
c1cc2c(c(N3CCNCC3)c1)OCCO2 [eltoprazine] gave a drug sensitivity score [1] of 0, a drug sensitivity score [2] of 0 and a drug sensitivity score [3] of 0. For the same compound, the drug sensitivity score [4] was 0, the drug sensitivity score [5] was 0 and the cell viability ([6]; 1 nM) was 98.4%. It also gave a cell viability ([6]; 10 nM) of 99.6%, a cell viability ([6]; 100 nM) of 92.9% and a cell viability ([6]; 1000 nM) of 93.6%. The cell viability ([6]; 10000 nM) was 88.2%, the cell viability ([7]; 1 nM) was 105% and the cell viability ([7]; 10 nM) was 97.1%. The cell viability ([7]; 100 nM) was 106%, the cell viability ([7]; 1000 nM) was 108% and the cell viability ([7]; 10000 nM) was 101%. For the same compound, the cell viability ([8]; 1 nM) was 92.4%, the cell viability ([8]; 10 nM) was 76.5% and the cell viability ([8]; 100 nM) was 97.7%. The cell viability ([8]; 1000 nM) was 108%, the cell viability ([8]; 10000 nM) was 107% and the cell viability ([9]; 1 nM) was 97%. The cell viability ([9]; 10 nM) was 101%, the cell viability ([9]; 100 nM) was 92.2% and the cell viability ([9]; 1000 nM) was 92.4%. For the same compound, the cell viability ([9]; 10000 nM) was 95.7%, the cell viability ([10]; 1 nM) was 96.5% and the cell viability ([10]; 10 nM) was 96.5%. The cell viability ([10]; 100 nM) was 97.9%, the cell viability ([10]; 1000 nM) was 91.9% and the cell viability ([10]; 10000 nM) was 103%. The “relative viability EC50” value [11] was > 10 µM, the “relative viability EC50” value [12] was > 10 µM and the “relative viability EC50” value [13] was > 10 µM. For the same compound, the “relative viability EC50” value [14] was > 10 µM and the “relative viability EC50” value [15] was > 10 µM.
N=C(N)NCCCC[C@@H]1NC(=O)CCSSC[C@@H](C(N)=O)NC(=O)[C@@H]2CCCN2C(=O)[C@H](Cc2c[nH]c3ccccc23)NC(=O)[C@H](CC(=O)O)NC(=O)CNC1=O [eptifibatide] gave a drug sensitivity score [1] of 0, a drug sensitivity score [2] of 0 and a drug sensitivity score [3] of 0. It also gave a drug sensitivity score [4] of 0, a drug sensitivity score [5] of 0.9 and a cell viability ([6]; 1 nM) of 96.6%. For the same compound, the cell viability ([6]; 10 nM) was 97.4%, the cell viability ([6]; 100 nM) was 93.7% and the cell viability ([6]; 1000 nM) was 98.5%. For the same compound, the cell viability ([6]; 10000 nM) was 96%, the cell viability ([7]; 1 nM) was 94.6% and the cell viability ([7]; 10 nM) was 99.5%. For the same compound, the cell viability ([7]; 100 nM) was 85.8%, the cell viability ([7]; 1000 nM) was 95.4% and the cell viability ([7]; 10000 nM) was 95.6%. The cell viability ([8]; 1 nM) was 96.4%, the cell viability ([8]; 10 nM) was 104% and the cell viability ([8]; 100 nM) was 100%. For the same compound, the cell viability ([8]; 1000 nM) was 103%, the cell viability ([8]; 10000 nM) was 101% and the cell viability ([9]; 1 nM) was 97%. The cell viability ([9]; 10 nM) was 92.6%, the cell viability ([9]; 100 nM) was 94.7% and the cell viability ([9]; 1000 nM) was 87.1%. For the same compound, the cell viability ([9]; 10000 nM) was 95.5%, the cell viability ([10]; 1 nM) was 105% and the cell viability ([10]; 10 nM) was 95.2%. The cell viability ([10]; 100 nM) was 100%, the cell viability ([10]; 1000 nM) was 94.8% and the cell viability ([10]; 10000 nM) was 83.3%. The “relative viability EC50” value [11] was > 10 µM, the “relative viability EC50” value [12] was > 10 µM and the “relative viability EC50” value [13] was > 10 µM. For the same compound, the “relative viability EC50” value [14] was > 10 µM and the “relative viability EC50” value [15] was > 10 µM.
